Source: patent publication US10519211B2, “Compounds as peptidic GLP1/glucagon/GIP receptor agonists” (SANOFI, priority 2016, dated 2019)
Numbered stars: 1 amine (or outer) side, 2 acyl side, 3 side chain; on linkers, the order of the positions; unused ones are H or OH. Square brackets hold non-standard residues; d marks the D form. Side chains are listed from the residue outwards. Peptide text beside a SMILES is read from it. * marks the point of attachment. γGlu = O=C(O)[C@H](CCC(=O)[*:2])N[*:1]; Palmitoyl = CCCCCCCCCCCCCCCC(=O)*; Aib = CC(C)(N)C(=O)O

Tested on: female diet-induced obese (DIO) C57BL/6NHsd mice
Experiment: Acute and chronic effects after subcutaneous treatment in female diet-induced obese (DIO) mice
Format: in vivo, mouse
Conditions: for Body mass compared to the DIO-Vehicle group / Whole body fat mass compared to the DIO-Vehicle group / Plasma insulin concentrations compared to DIO vehicle / Plasma total cholesterol concentrations compared to DIO vehicle / Liver mass on day 28 compared to DIO animals treated with vehicle / Plasma alanine aminotransferase concentration on day 28 compared to DIO vehicle: 30 μg/kg s.c. twice daily; for Body mass compared to the DIO-Vehicle group / Whole body fat mass compared to the DIO-Vehicle group / Body mass change: 28 days; for Body mass compared to the DIO-Vehicle group / Whole body fat mass compared to the DIO-Vehicle group / Plasma insulin concentrations compared to DIO vehicle / Plasma total cholesterol concentrations compared to DIO vehicle / Liver mass on day 28 compared to DIO animals treated with vehicle / Plasma alanine aminotransferase concentration on day 28 compared to DIO vehicle / 24 hour blood glucose profile following first treatment: in words; for Plasma insulin concentrations compared to DIO vehicle / Plasma total cholesterol concentrations compared to DIO vehicle: day 28; for 24 hour blood glucose profile following first treatment: 30 μg/kg s.c., day 1, fed DIO mice, vs DIO control; for Body mass change / Whole body fat mass change / Terminal liver mass (g) / Terminal plasma alanine aminotransferase (U/L) / Terminal plasma insulin (U/L) / Terminal plasma total cholesterol (mmol/L): twice-daily 30 μg/kg s.c.; for Body mass change: mean ± SEM; for Whole body fat mass change: QNMR predose vs day 26, mean ± SEM; for Terminal liver mass (g) / Terminal plasma alanine aminotransferase (U/L) / Terminal plasma insulin (U/L) / Terminal plasma total cholesterol (mmol/L): day 28, mean ± SEM
Description: Female C57BL/6NHsd mice were ordered group housed from Envigo RMS Inc., shipped group housed and remained group housed with shipped cage mates in shoebox caging with wood chip bedding until day 38 of the predose phase. At the study start mice were between 25-26 weeks old.
Mice were housed under vivarium conditions that included a 12 h light/dark cycle (light phase 04:00 AM-4:00 PM), room temperatures between 23-26° C. and a relative humidity between 30-70%. All animals had free access to water and a high fat diet (TD97366) for 16 weeks prior to pharmacological intervention (dosing phase). Feed was replaced with fresh feed weekly until and for the last time on day 38 of the predose phase. During the subsequent dosing phase, approximately 50% of the remaining feed were removed, replaced with fresh feed, and pellets were mixed evenly once per week.
On predose day 38, obese DIO mice were assigned to treatment groups (n=8) to match mean body masses between all DIO groups. An age-matched group with ad libitum access to a rodent maintenance diet (Teklad Global Diets Rodent 2014, pelleted) was included in the study as a lean control group. In the predosing phase from day 32 through 38, all study animals were treated with vehicle (Phosphate Buffered Saline, PBS, Gibco, without CaCl2 and MgCl2) once daily (s.c. approximately 0.2 mL/mouse).
On day 37 of the predose phase, the test article was diluted with PBS to a concentration of 100 μg/mL and aliquots of this stock solution were stored at approximately ≤−60° C. Stock aliquots were thawed for weekly use and thereafter stored in a refrigerator at approximately 4° C. The injected test article solution was prepared fresh once on each dosing day by diluting stock solution with PBS to achieve the desired concentration.
Mice were treated twice daily with a s.c. injection of PBS-vehicle or the test article for 28 days. The morning dosing was initiated and completed between 06:00 and 07:30 AM and the afternoon dosing between 2:00 and 3:30 PM. On day 28 of the dosing phase only the morning dose was administered. The applied volume was 5 ml/kg and the dose was adjusted to the most recent body mass recording of each individual.
Animals had unlimited access to water and feed during the experiment. On day 1 of the dosing phase approximately 5 μL of blood were collected via tail clips at hour 0, prior to the first s.c. dose of PBS-vehicle or test-article as well as 1, 2, 3, 4, 6, and 24 hours post-dose. Animals received the second s.c. dose of PBS-vehicle or test-article 8 hours after the first dose. The 24 hour blood collection of the blood glucose profile was performed prior to dosing on day 2. Glucose measurements were performed in whole blood and in duplicate or triplicate using Aviva glucometers.
Body mass was measured daily approximately between 06:00-07:30 AM from day 32 through 38 of the predosing phase and throughout the 28 days of the dosing phase. During the dosing phase mice were treated twice daily with either a s.c. injection of PBS-vehicle or test article.
To determine whole body fat mass Quantitative Nuclear Magnetic Resonance (QNMR) measurements were performed on predosing day 37 and on day 26 of the dosing phase. During the dosing phase mice were treated twice daily with either a s.c. injection of PBS-vehicle or test article.
On day 28 blood was collected prior to any other inlife activities for determination of plasma insulin concentrations. Then the morning dose was administered and necropsy was performed 4 hours post-dose. For this purpose animals were anesthetized with isoflurane and blood was collected by orbital bleeding.
On day 28 and 4 hours after the morning dose, blood was collected from mice under isoflurane anesthesia as described above. Then mice were killed and livers were collected and weighed.
Data are depicted as means±SEM. […] A One-Way ANOVA and Tukey Test were used for pairwise multiple comparisons of all groups (n=8/group, deviations from group size are indicated). […]

What does the source list for CCCCCCCCCCCCCCCC(=O)N[C@@H](CCC(=O)N[C@@H](CCC(=O)NCCCC[C@H](NC(=O)[C@H](CC(C)C)NC(=O)[C@H](CCCCN)NC(=O)[C@H](CO)NC(=O)[C@H](CC(C)C)NC(=O)[C@H](CC(=O)O)NC(=O)[C@H](CO)NC(=O)[C@@H](NC(=O)[C@H](Cc1ccccc1)NC(=O)[C@@H](NC(=O)CNC(=O)[C@H](CCC(N)=O)NC(=O)C(C)(C)NC(=O)[C@@H](N)Cc1c[nH]cn1)[C@@H](C)O)[C@@H](C)O)C(=O)N[C@@H](CCC(=O)O)C(=O)N[C@@H](CCC(=O)O)C(=O)N[C@@H](CCC(N)=O)C(=O)N[C@@H](CCCNC(=N)N)C(=O)N[C@@H](CCC(N)=O)C(=O)NC(C)(C)C(=O)N[C@@H](CCC(=O)O)C(=O)N[C@@H](Cc1ccccc1)C(=O)N[C@H](C(=O)N[C@@H](CCC(=O)O)C(=O)N[C@@H](Cc1c[nH]c2ccccc12)C(=O)N[C@@H](CC(C)C)C(=O)N[C@@H](CCCCN)C(=O)N[C@@H](C)C(=O)NCC(=O)NCC(=O)N[C@@H](Cc1c[nH]cn1)C(=O)N1CCC[C@H]1C(=O)N[C@@H](CO)C(=O)NC(C)(C)C(=O)N[C@@H](CCCCN)C(=O)N1CCC[C@H]1C(=O)N1CCC[C@H]1C(=O)N1CCC[C@H]1C(=O)N[C@@H](CCCCN)C(N)=O)[C@@H](C)CC)C(=O)O)C(=O)O [SEQ ID NO: 8, H-Aib-Q-G-T-F-T-S-D-L-S-K-L-K[gGlu-gGlu-Palm]-E-E-Q-R-Q-Aib-E-F-I-E-W-L-K-A-G-G-H-P-S-Aib-K-P-P-P-K-NH2]?
Body mass compared to the DIO-Vehicle group: statistically significant decrease in body mass; Whole body fat mass compared to the DIO-Vehicle group: statistically significantly reduction in whole body fat mass; Plasma insulin concentrations compared to DIO vehicle: statistically significant reduction in plasma insulin concentrations; Plasma total cholesterol concentrations compared to DIO vehicle: statistically significant reduction in plasma total cholesterol concentrations; Liver mass on day 28 compared to DIO animals treated with vehicle: statistically significantly lower liver mass; Plasma alanine aminotransferase concentration on day 28 compared to DIO vehicle: statistically significantly lower plasma alanine aminotransferase concentration; 24 hour blood glucose profile following first treatment: decrease in blood glucose concentrations below concentrations observed in DIO control mice; Body mass change (Table 11): -8.23 ± 0.62 g; Whole body fat mass change (Table 11): -6.65 ± 0.38 g; Terminal liver mass (g) (Table 11): +1.08 ± 0.03 g; Terminal plasma alanine aminotransferase (U/L) (Table 11): +68.88 ± 15.05 U/L; Terminal plasma insulin (U/L) (Table 11): +39.70 ± 4.25 U/L; Terminal plasma total cholesterol (mmol/L) (Table 11): +4.36 ± 0.08 mmol/L

For CCCCCCCCCCCCCCCC(=O)N[C@@H](CCC(=O)N[C@@H](CCC(=O)NCCCC[C@H](NC(=O)[C@H](CC(C)C)NC(=O)[C@H](CCCCN)NC(=O)[C@H](CO)NC(=O)[C@H](CC(C)C)NC(=O)[C@H](CC(=O)O)NC(=O)[C@H](CO)NC(=O)[C@@H](NC(=O)[C@H](Cc1ccccc1)NC(=O)[C@@H](NC(=O)CNC(=O)[C@H](CCC(N)=O)NC(=O)C(C)(C)NC(=O)[C@@H](N)Cc1c[nH]cn1)[C@@H](C)O)[C@@H](C)O)C(=O)N[C@@H](CCC(=O)O)C(=O)N[C@@H](CCCCN)C(=O)N[C@@H](CCC(N)=O)C(=O)N[C@@H](CCCNC(=N)N)C(=O)N[C@@H](CCC(N)=O)C(=O)NC(C)(C)C(=O)N[C@@H](CCC(=O)O)C(=O)N[C@@H](Cc1ccccc1)C(=O)N[C@H](C(=O)N[C@@H](CCC(=O)O)C(=O)N[C@@H](Cc1c[nH]c2ccccc12)C(=O)N[C@@H](CC(C)C)C(=O)N[C@@H](CCCCN)C(=O)N[C@@H](C)C(=O)N[C@H](C)C(=O)NCC(=O)N1CCC[C@H]1C(=O)N1CCC[C@H]1C(=O)N[C@@H](CO)C(=O)NC(C)(C)C(=O)N[C@@H](CCCCN)C(=O)N1CCC[C@H]1C(=O)N1CCC[C@H]1C(=O)N1CCC[C@H]1C(=O)N[C@@H](CCCCN)C(N)=O)[C@@H](C)CC)C(=O)O)C(=O)O [SEQ ID NO: 7, H-Aib-Q-G-T-F-T-S-D-L-S-K-L-K[gGlu-gGlu-Palm]-E-K-Q-R-Q-Aib-E-F-I-E-W-L-K-A-dAla-G-P-P-S-Aib-K-P-P-P-K-NH2] (H-H[Aib]QGTFTSDLSKLK([γGlu-γGlu-Palmitoyl])EKQRQ[Aib]EFIEWLKA[dA]GPPS[Aib]KPPPK-NH2), which “Body mass compared to the DIO-Vehicle group” value is on record?
Its value is “statistically significant decrease in body mass”.

And the “Whole body fat mass compared to the DIO-Vehicle group” value?
Its value is “statistically significantly reduction in whole body fat mass”.

And the “Plasma insulin concentrations compared to DIO vehicle” value?
Its value is “statistically significant reduction in plasma insulin concentrations”.

What about the “Plasma total cholesterol concentrations compared to DIO vehicle” value of the same compound?
The value was “statistically significant reduction in plasma total cholesterol concentrations”.

What about the “Liver mass on day 28 compared to DIO animals treated with vehicle” value of the same compound?
The value was “statistically significantly lower liver mass”.

What about the “Plasma alanine aminotransferase concentration on day 28 compared to DIO vehicle” value of the same compound?
The value was “statistically significantly lower plasma alanine aminotransferase concentration”.

And the “24 hour blood glucose profile following first treatment” value?
Its value is “decrease in blood glucose concentrations below concentrations observed in DIO control mice”.

And the “Body mass change” value (Table 9)?
The value was -5.58 ± 0.60 g.

And the “Whole body fat mass change” value (Table 9)?
Its value is -4.46 ± 0.50 g.

And the “Terminal liver mass (g)” value (Table 9)?
The value was “+1.14 ± 0.04 g”.

And the “Terminal plasma alanine aminotransferase (U/L)” value (Table 9)?
The value was “+47.63 ± 6.76 U/L”.

What about the “Terminal plasma insulin (U/L)” value (Table 9) of the same compound?
The value was “+58.04 ± 6.33 U/L”.

And the “Terminal plasma total cholesterol (mmol/L)” value (Table 9)?
The value was “+4.19 ± 0.15 mmol/L”.
